Experimental data taken from patent publication US10487089B2, “Imaging agents and methods of identifying same” (The Trustees of the University of Pennsylvania, priority 2014, dated 2019).
Entries after “also recorded” stand apart in the source; their conditions may differ.

How the values were obtained:
[1] = Photophysical properties (absorption, emission, extinction coefficient, quantum yield); type: physicochemical
Text: n-Butyllithium in hexanes was purchased from Acros and titrated with diphenylacetic acid, which was recrystallized from toluene. All other reagents were purchased from Sigma Aldrich and used without further purification. Solvents were purchased from either Sigma Aldrich or Fisher Scientific. Anhydrous solvents were purchased from Fisher Scientific and dried by passing through an alumina column of a solvent purification system. Silica gel (230-400 mesh) used for column chromatography was purchased from Silicycle. Thin layer chromatography plates (250 μm thickness) were purchased from Sorbent Technologies. Revered-phase column chromatography was done using a RediSep Rf Gold C18 column on a Teledyne Isco CombiFlash Rf system. High-performance liquid chromatography (HPLC) was performed on a Jasco HPLC system using a Phenomenex column (Luna 5u C18(2) 100A; 250×4.60 mm, 5 micron). UV absorption spectra were obtained on a Jasco V-650 spectrophotometer using a 1 cm path length quartz cuvette. Fluorescence emission spectra were taken on a Horiba Jobin-Yvon FluoroLog using a 1 cm path length fluorescence quartz cuvette. ^1H-NMR and ^13C-NMR were recorded on either a Bruker DMX 500 (500 MHz) or a Bruker AVII 500 (500 MHz). High-resolution mass spectrometry was performed using a Waters LCT Premier XE Mass Spectrometer (model KE 332). […] was performed using a Bruker APEX2-DUO CCD X-ray Diffractometer. Photoreactions were carried out in a Rayonet Photochemical Reactor (model RPR-100). Quantum yield was determined by serial dilution method using coumarine 153 (in ethanol, Φ=0.38) and fluorescein (in NaOH 0.1 M, Φ=0.95) as standards (Yvon, A guide to recording Fluorescence Quantum Yields, http://www.horiba.com/fileadmin/uploads/Scientific/Documents/Fluorescence/quantumyie ldstrad.pdf, accessed Jul. 13, 2014; Brouwer, 2011, Pure Appl. Chem. 83: 2213-2228)

HeLa cells [2] = assay: Cytotoxicity studies, Alamar Blue cell viability; type: cell-based; settings: HeLa cells, 24, 48, and 72 hours; 5 μM 11-E/11-Z, 1 μM MitoTracker Red FM
Description: In a 96-well plate, HeLa cells were plated at 5,000 cells/well in culture media as described above (50 μL/well) and incubated at 37° C. in a humidified atmosphere with 5% CO2. After 24 hours, cells were treated with 11-E/11-Z (final concentration was 5 μM), MitoTracker Red FM (final concentration was 1 μM), and DMSO (vehicle control for MitoTracker). For wells treated with MitoTracker and DMSO, DMSO concentration was kept at 1%. Untreated cells were used as vehicle control for 11-E/11-Z. Final volumes were 100 μL/well. Cells were incubated at 37° C. in 5% CO2 for 24, 48, or 72 hours. Alamar Blue (10 μL) was added 2 hours prior to fluorescence measurement. Fluorescence was measured at 560 nm excitation and 590 nm emission. Vehicle control was taken as 100% cell viability.

HeLa cells [3] = assay: Confocal microscopy of stained live HeLa cells (subcellular localization, cell permeability); settings: confocal microscopy
Description: Confocal microscopy was done on a Yokogawa spinning disk inverted microscope with a 100× lens. Each batch of stained cells was imaged by exciting with a 488 nm laser while observing at 503-545 nm (the green overlay images), exciting with a 561 nm laser while observing at 583-650 nm (the red overlay images), and by DIC (the grey images) (FIG. 8).
A 444 nm excitation was required to image with compounds 2 and 3 (FIG. 18).

[4] = test system: mito-GFP cell line (GFP localized to the outer mitochondria membrane); assay: Colocalization with GFP-labeled mitochondria in mito-GFP HeLa cells; type: cell-based
Description: For live cell imaging, HeLa cells and HeLa cells expressing a mitochondrial outer membrane targeting domain from Listeria monocytogenes (ActA, C-terminal 47 amino acids) fused to a HaloTag-GFP construct (Ballister et al., 2014, Nat. Commun. 5: 4575) were used. Cells were cultured in a 60 mm culture dish using Life Technologies Dulbecco's Modified Eagle Medium (DMEM) media with phenol red, 10% Fetal Bovine Serum and 1% penicillin-streptomycin at 37° C. in a humidified atmosphere with 5% CO2. The cells were detached with 0.05% trypsin-EDTA and transferred to a 35 mm glass bottom poly-D-lysine coated dish 2-5 days before imaging with about 2 mL of the above-mentioned media. A 5 mM solution of 11-E/11-Z in MiliQ water and a 1 mM solution of MitoTracker Red FM in DMSO were prepared. Two microliter of each solution was mixed with 2 mL new media and added to the cells after the old media was removed. After incubation (3 hours to overnight for 11-E/11-Z and 1 hour for MitoTracker Red FM), the excess dyes were washed twice with non-phenol red DMEM before imaging. The cells were kept in 2 mL non-phenol red DMEM during imaging.
A Leica TCS SP8 confocal microscope equipped with a 63×/1.4 NA oil immersion objective lens was used in FIG. 2A, 3E, S2, S3, and S4. To selectively observe 11-E/11-Z, the excitation wavelength of 405 nm and the emission wavelength range of 620-650 were used. To selectively observe MitoTracker Red FM, the excitation wavelength of 638 nm and the emission wavelength range of 650-700 were used. To selectively observe GFP, the excitation wavelength of 488 nm and the emission wavelength range of 500-550 were used.
Photoproduct 12 is red-shifted in both absorbance and emission by approximately 100 nm while retaining a large Stokes shift of 108 nm (FIG. 44C). […]
Incubating mito-GFP cells with 11-E/11-Z allowed colocalization to be assessed (FIGS. 45A and 54).

[5] = Stability of aqueous solution under ambient light (HPLC); type: physicochemical; settings: 1 mM in water, 25° C., 10 days
Description: The stability of 1 mM aqueous solution of 11-E/11-Z was assessed under ambient light conditions at 25° C. for 10 days. […] HPLC chromatograms of compounds 11-E/11-Z and 12 can be seen in FIGS. 57 and 58.

HeLa cells [6] = assay: Intracellular photoactivation of 11-E/11-Z to 12 in live HeLa cells; type: cell-based; settings: 200 alternating 150 ms pulses, one phase exponential fit
Text: A Leica DM4000 spinning disk confocal microscope equipped with a 100×1.4 NA oil immersion objective was used in FIGS. 3A and 3B. In FIG. 3A, two channels were used. The first channel has 444 nm excitation wavelength and 525 nm emission wavelength (emission bandpass filter, bandwidth=36 nm). The second channel has 488 nm excitation wavelength and 632 nm emission wavelength (emission bandpass filter, bandwidth=60 nm). The two channels were used alternatingly to carry out 200 150-ms pulses. In FIG. 46B, selective activation was carried out by short pulse (about 1 second) using a 405 nm laser (CrystaLaser, DL405-050-O) controlled by the iLas2 module in Metamorph. All image processing was done using ImageJ. All curve fitting was done using Prism.
By combining the observed photoreaction (FIG. 44A) and the ability to selectively label mitochondria for live cell imaging (FIG. 45A), intracellular photoactivation of 11-E/11-Z was attempted. The roughly 100 nm red-shifted absorbance and emission spectra of 12 compared to 11-E/11-Z allowed for selective excitation of individual species. […] A significant increase in the intensity of […] was achieved after 30 seconds, using 200 total scans (FIG. 46A, 46B). […] Immediately after the first activation, a bright signal was detected at the targeted region (box 1). […]

## C[n+]1cccc2c1/C(=C1\c3ccccc3Oc3cccnc31)c1ccccc1O2 (racemic) [11-E/11-Z]
[1]
  Stokes shift: 135 nm
[1]; in water
  Abs λmax: 408 nm
  Em λmax: 543 nm
[1]; solvent: water
  extinction coefficient ε: 11040 M⁻¹ cm⁻¹
  quantum yield Φ: 0.021
HeLa cells [2]
  cytotoxicity: very low cytotoxicity
HeLa cells [3]
  staining specificity / subcellular localization: consistent with mitochondrial uptake; also recorded: near exclusive mitochondrial localization
[4]
  Manders' overlap coefficient (first): 0.98±0.01
  Manders' overlap coefficient (second): 1.00±0.00
[4]; 80 cells
  Spearman correlation with GFP: 0.88±0.02
[5]
  stability of aqueous solution under ambient light: No decomposition or photoproduct; also recorded: no evidence for decomposition or photoconversion
HeLa cells [6]
  rate constant, 444/525 channel: 0.060 s⁻¹
  rate constant, 488/632 channel: 0.030 s⁻¹
